Data published in patent US20040014764A1, “N-myristoyltransferase inhibitor compositions and methods of use” (priority 2002, published 2004).
Where two headings read alike, the source gives them in different places.

What was measured:
recombinant human NMT [1] = target: T1, recombinant human NMT (Homo sapiens, UniProt P30419); test: NMT screening assay with purified recombinant GST-NMT-1, [3H]-myristoyl-CoA and biotinylated peptide
T1 sequence (P30419 1-496): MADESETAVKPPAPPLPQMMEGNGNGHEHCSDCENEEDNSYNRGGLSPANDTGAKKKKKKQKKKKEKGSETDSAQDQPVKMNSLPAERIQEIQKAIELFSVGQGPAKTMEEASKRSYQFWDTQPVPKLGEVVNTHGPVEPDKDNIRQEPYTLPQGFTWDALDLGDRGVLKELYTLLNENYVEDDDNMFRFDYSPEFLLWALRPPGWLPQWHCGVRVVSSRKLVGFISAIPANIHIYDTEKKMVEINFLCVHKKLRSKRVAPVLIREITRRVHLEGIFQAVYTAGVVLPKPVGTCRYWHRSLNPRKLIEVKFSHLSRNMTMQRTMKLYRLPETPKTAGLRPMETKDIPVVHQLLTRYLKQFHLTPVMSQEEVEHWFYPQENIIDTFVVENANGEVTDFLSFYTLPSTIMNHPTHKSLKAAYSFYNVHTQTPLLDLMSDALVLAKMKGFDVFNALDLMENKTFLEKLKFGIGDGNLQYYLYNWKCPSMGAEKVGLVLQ

[2] = tested on: T24 human bladder carcinoma cells; test: Cytotoxicity assay, sulforhodamine B binding; details: T-24, 48 h, read-out: Cytotoxicity IC50
Procedure: To determine the abilities of NMT inhibitors to affect the growth of hyperproliferative cells, cytotoxicity assays were performed using the T24 human bladder carcinoma cell line. […] In these assays, T24 cells growing in tissue culture in the presence of 10% fetal bovine serum are treated with varying concentrations of a test compound for 48 hours. At the end of the treatment period, the number of surviving tumor cells is quantified using any of a variety of methods well known in the field. In these, experiments, the number of surviving cells was determined using the sulforhodamine B binding assay.

endogenous NMT = test: N-myr-GFP localization in transfected CV-1 cells (fluorescence microscopy); assay type: cell-based, monkey
Procedure: Cellular effects of COPP compounds. […] To determine their efficacy in intact cells, a novel assay was developed in which the N-terminus of enhanced green fluorescent protein (GFP) was modified to allow its myristoylation (N-myr-GFP) by endogenous NMT. To begin, the myristoylation sequence […] was added to the N-terminus of green fluorescent protein (N-myr-GFP) using techniques familiar to those practiced in the art. Since GFP is intrinsically fluorescent, the sites of its intracellular distribution can be visualized using fluorescence microscopy. When a plasmid containing the N-myr-GFP sequence is transfected into CV-1 cells, the GFP encoded by this construct is myristoylated by endogenous NMT causing it to localize to the plasma membrane, as indicated by the bright fluorescence at the cell periphery (FIG. 2). […] This method provides evidence that the inhibitors detected in the screen with recombinant NMT can also block endogenous NMT activity in whole cells.

MCF-7 = test: Antiproliferative activity toward human tumor cell lines; assay type: cell-based; details: MCF7, MCF-7, Breast, mean ± SEM of 4 experiments
Procedure: (§1) Antiproliferative effects of compound 537.
(§2) Additionally, the effects of compound 537 on the proliferation of a panel of human tumor cell lines were determined. […] Of interest, colon-derived HT29 cells were most sensitive to compound 537, and previous work has indicated a close association of activation of Src (which requires myristoylation for activity) and colon cancer (Raju et al., Exp. Cell Res. 235: 145 (1997)).

HepG2 = test: as above; assay type: cell-based; details: HepG2, Liver, mean ± SEM of 4 experiments
Procedure: as §1, §2

MDA-MB-231 = test: as above; assay type: cell-based; details: MDA-MB-231, Breast, mean ± SEM of 4 experiments
Procedure: as §1, §2

DU145 = test: as above; assay type: cell-based; details: DU-145, DU145, Prostate, mean ± SEM of 4 experiments
Procedure: as §1, §2

A-498 = test: as above; assay type: cell-based; details: A498, A-498, Kidney, mean ± SEM of 4 experiments
Procedure: as §1, §2

HT29 = test: as above; assay type: cell-based; details: HT-29, HT29, Colon, mean ± SEM of 4 experiments
Procedure: as §1, §2

Panc-1 = test: as above; assay type: cell-based; details: Panc-1, Pancreas, mean ± SEM of 4 experiments
Procedure: as §1, §2

SKOV3 = test: as above; assay type: cell-based; details: SK-OV-3, SKOV3, Ovary, mean ± SEM of 4 experiments
Procedure: as §1, §2

GST-hNMT-1 = target: T2, GST-hNMT-1 (Homo sapiens, UniProt P30419); test: Peptide and myristoyl-CoA substrate competition experiments (Michaelis-Menten); assay type: biochemical
T2 construct: made in house; host or cells: E. coli
T2 sequence (P30419 1-496): T1 sequence (P30419 1-496)
Procedure: Development of the NMT screening assay.
Mechanism of inhibition of NMT by COPP compounds. The mechanism of inhibition by compound 537 was examined using peptide and myristoyl-CoA substrate competition experiments with GST-hNMT-l. In the absence of inhibitor, the KM for myristoyl-CoA compares very well with the literature value of 2.6 μM (Rocque et al., J Biol. Chem. 268: 9964 (1993)). […] However, it is well established that the affinity for the peptide is highly sequence-sensitive, so that KMS >100 μM are not unusual. For studies of the ability of compound 537 to interact with the peptide-binding site of NMT, the peptide concentration was varied from 0 to 500 μM, while the myristoyl-CoA concentration was kept constant in the assays. The presence of compound 537 at its IC50 concentration […] the KM for the peptide relative to the solvent control. […] To determine the effects of compound 537 on the myristoyl-CoA binding site, the concentration of myristoyl-CoA was varied from 0 to 100 μM, while the peptide concentration was held constant in the assays. […] Overall, these kinetic analyses indicate that compound 537, and most likely the rest of the COPP family, inhibit NMT activity by competing with the substrate peptide for binding to the enzyme.

[3] = tested on: panel of human tumor cell lines; test: Proliferation of a panel of human tumor cell lines (summary); assay type: cell-based; details: range over the 8 cell lines of TABLE 3, read-out: IC50s across the tumor cell line panel
Procedure: as §1, §2

recombinant human NMT [4] = target: T1, recombinant human NMT; design: made in house; host or cells: E. coli; details: published value (Boutin et al. 1991); read-out: published IC50 concentration for NMT; cited from earlier work

| Structure (SMILES) | IC50 (recombinant human NMT [1]) [µM] | IC50 [2] [µM] | other results |
| --- | --- | --- | --- |
| Brc1csc(CN2CCN3CCCC3C2C2CCCCC2)c1 (stereo not drawn) [Compound 555] | > 8000 | 1.2 | – |
| CCCCCCCCCCCCC(O)C(=O)O (stereo not drawn) [2-hydroxymyristic acid, reference compound] | – | – | intracellular distribution of N-myr-GFP (endogenous NMT; millimolar concentrations): redistribution of GFP to the cytosol |
| CC1=C(CCN2CCN3CCCC3C2C2CCCCC2)C(C)(C)CCC1 (stereo not drawn) [Compound 638] | 43 ± 4 | 1.4 | – |
| c1ccc2cc(N3CCN4CCCC4C3C3CCCCC3)ccc2c1 (stereo not drawn) [Compound 542] | 42 ± 5 | 1.3 | – |
| O=[N+]([O-])c1cccc(-c2ccc(CN3CCN4CCCC4C3C3CCCCC3)o2)c1 (stereo not drawn) [Compound 616] | 41 ± 1 | 2.1 | – |
| O=[N+]([O-])c1ccccc1-c1ccc(CN2CCN3CCCC3C2C2CCCCC2)o1 (stereo not drawn) [Compound 615] | 45 ± 2 | 1.4 | – |
| c1cc2ccc3ccc(CN4CCN5CCCC5C4C4CCCCC4)c4ccc(c1)c2c34 (stereo not drawn) [Compound 629] | 70 ± 8 | 3 | – |
| Cc1ccc2occ(CN3CCN4CCCC4C3C3CCCCC3)c(=O)c2c1 (stereo not drawn) [Compound 591] | > 8000 | 9.7 | – |
| O=[N+]([O-])c1ccc(-c2ccc(CN3CCN4CCCC4C3C3CCCCC3)o2)cc1 (stereo not drawn) [Compound 617] | 36 ± 4 | 4.6 | – |
| C1CCC(C2C3CCCN3CCN2C2CCCCC2)CC1 (stereo not drawn) [Compound 624] | 113 ± 7 | 1.6 | – |
| CCCCCCCCCCCCCC(=O)N[C@@H](Cc1ccccc1)C(=O)O [myristoylphenylalanine, reference compound] | – | – | IC50 (recombinant human NMT [4]): 100 µM; inhibition at 100 µM (recombinant human NMT [1]; read-out: inhibition of recombinant human NMT): ~50% |
| COc1ccccc1/C=C/CN1CCN2CCCC2C1C1CCCCC1 (stereo not drawn) [Compound 640] | 1600 ± 200 | 2.8 | – |
| c1cncc(N2CCN3CCCC3C2C2CCCCC2)c1 (stereo not drawn) [Compound 522] | 590 ± 127 | 400 | – |

Now from value to molecule, other results behind:

| IC50 (recombinant human NMT [1]) [µM] | Structure (SMILES) | IC50 [2] [µM] | other results |
| --- | --- | --- | --- |
| 47 ± 7 | CC1C2CCCN2CCN1Cc1c2ccccc2c(Cl)c2ccccc12 (stereo not drawn) [Compound 766] | 4.2 | – |
| 6 | CCn1c2ccccc2c2cc(CN3CCN4CCCC4C3C3CCCCC3)ccc21 (stereo not drawn) [Compound 537] | 1.8 | IC50 (MCF-7): 8 ± 0.9 µM; IC50 (HepG2): 4.4 ± 1.2 µM; IC50 (MDA-MB-231): 11.9 ± 1.3 µM; IC50 (DU145): 14.8 ± 2.9 µM; IC50 (A-498): 5.8 ± 1.4 µM; IC50 (HT29): 3.7 ± 0.6 µM; IC50 (Panc-1): 12.6 ± 1.3 µM; IC50 (SKOV3): 13.2 ± 3.6 µM; intracellular distribution of N-myr-GFP (endogenous NMT; micromolar concentrations): displacement of N-myr-GFP to the cytosol; Peptide Vmax (GST-hNMT-1; in presence of compound at its IC50 concentration, peptide varied 0 to 500 μM, myristoyl-CoA constant): 0.076 ± 0.006 pmol/min; Myristoyl-CoA Vmax (GST-hNMT-1; in presence of compound, myristoyl-CoA varied 0 to 100 μM, peptide constant): 0.034 ± 0.001 pmol/min; mechanism of inhibition with respect to the lipid substrate (GST-hNMT-1; myristoyl-CoA competition): noncompetitive inhibitor; mechanism of inhibition with respect to the peptide substrate (GST-hNMT-1; peptide competition): competitive inhibitor; IC50 [3]: 3.7 to 14.8 µM |
| 28 ± 8 | COc1ccc2ccccc2c1CN1CCN2CCCC2C1C1CCCCC1 (stereo not drawn) [Compound 622] | 1.5 | – |
| 35 ± 5 | COc1ccc(CN2CCN3CCCC3C2C2CCCCC2)c2ccccc12 (stereo not drawn) [Compound 621] | 0.7 | – |
| 40 ± 6 | CC1C2CCCN2CCN1Cc1cccc(Oc2ccc(Cl)cc2)c1 (stereo not drawn) [Compound 726, 2-[3-(4-chloro-phenoxy)-benzyl]-1-methyl-octahydro-pyrrolo[1,2-a]pyrazine] | 1.5 | – |
| 419 ± 30 | COc1ccc(CN2CCN3CCCC3C2C2CCCCC2)cc1 (stereo not drawn) [Compound 486] | 8.1 | – |
